Experimental data reported in ChEMBL document CHEMBL1136456, “Synthesis and biological evaluation of benzazepine oxazolidinone antibacterials” (2003).
Converted amounts (≈) assume the structure as drawn.

How the values were obtained:
Type in all cases: functional
Streptococcus pneumoniae = experiment: Antibacterial activity against Streptococcus pneumoniae UC9912 (S.p)
Haemophilus influenzae = experiment: Antibacterial activity against Haemophilus influenzae UC30063 (Haemophilus influenzae)
Enterococcus faecalis = experiment: Antibacterial activity against Enterococcus faecalis UC9217 (E. f)
Moraxella catarrhalis = experiment: Antibacterial activity against Moraxella catarrhalis UC30610 (M. cat)
[1] = test system: Staphylococcus epidermidis; experiment: Antibacterial activity against Methicillin-resistant Staphylococcus epidermidis UC12084 (S. e)
Staphylococcus aureus [2] = experiment: Antibacterial activity against Methicillin-suceptible Staphylococcus aureus UC9218
Staphylococcus aureus [3] = experiment: Antibacterial activity against Methicillin-resistant Staphylococcus aureus UC6685 (S. a.)
Mus musculus = experiment: Dose (administered orally) required to protect the Staphylococcus aureus infected mice was determined; conditions: po

CC(=O)NC[C@H]1CN(c2ccc3c(c2)CCCCN3C(=O)OCc2ccccc2)C(=O)O1
MIC (Streptococcus pneumoniae): > 64 µg/mL
MIC (Haemophilus influenzae): > 64 µg/mL
MIC (Enterococcus faecalis): > 64 µg/mL
MIC (Moraxella catarrhalis): > 64 µg/mL
MIC [1]: > 64 µg/mL
MIC (Staphylococcus aureus [2]): > 64 µg/mL

CC(=O)NC[C@H]1CN(c2ccc3c(c2)CCCN(C=O)C3)C(=O)O1
MIC (Streptococcus pneumoniae): 1 µg/mL (≈ 3.02 µM)
MIC (Haemophilus influenzae): 32 µg/mL (≈ 96.6 µM)
MIC (Staphylococcus aureus [3]): 1 µg/mL (≈ 3.02 µM)
ED50 (Mus musculus): 8.1 mg/kg/day
MIC (Enterococcus faecalis): 2 µg/mL (≈ 6.04 µM)
MIC (Moraxella catarrhalis): 4 µg/mL (≈ 12.1 µM)
MIC [1]: 2 µg/mL (≈ 6.04 µM)
MIC (Staphylococcus aureus [2]): 1 µg/mL (≈ 3.02 µM)

CC(=O)NC[C@H]1CN(c2ccc3c(c2)CCN(C(=O)Oc2ccccc2)CC3)C(=O)O1
MIC (Streptococcus pneumoniae): 2 µg/mL (≈ 4.72 µM)
MIC (Haemophilus influenzae): > 64 µg/mL
MIC (Enterococcus faecalis): 4 µg/mL (≈ 9.45 µM)
MIC [1]: 2 µg/mL (≈ 4.72 µM)
MIC (Staphylococcus aureus [2]): 4 µg/mL (≈ 9.45 µM)

CC(=O)NC[C@H]1CN(c2ccc3c(c2)NCCCC3)C(=O)O1
MIC (Streptococcus pneumoniae): 8 µg/mL (≈ 26.4 µM)
MIC (Haemophilus influenzae): > 64 µg/mL
MIC (Staphylococcus aureus [3]): 16 µg/mL (≈ 52.7 µM)
MIC (Enterococcus faecalis): 32 µg/mL (≈ 105 µM)
MIC (Moraxella catarrhalis): > 64 µg/mL
MIC [1]: 8 µg/mL (≈ 26.4 µM)
MIC (Staphylococcus aureus [2]): 32 µg/mL (≈ 105 µM)

CC(=O)NC[C@H]1CN(c2ccc3c(c2)CCCCN3C(=O)CO)C(=O)O1
MIC (Streptococcus pneumoniae): 8 µg/mL (≈ 22.1 µM)
MIC (Haemophilus influenzae): > 64 µg/mL
MIC (Staphylococcus aureus [3]): 32 µg/mL (≈ 88.5 µM)
MIC (Enterococcus faecalis): 64 µg/mL (≈ 177 µM)
MIC (Moraxella catarrhalis): > 64 µg/mL
MIC [1]: 8 µg/mL (≈ 22.1 µM)
MIC (Staphylococcus aureus [2]): 64 µg/mL (≈ 177 µM)

CC(=O)NC[C@H]1CN(c2ccc3c(c2)CCNCC3)C(=O)O1
MIC (Streptococcus pneumoniae): 8 µg/mL (≈ 26.4 µM)
MIC (Haemophilus influenzae): > 64 µg/mL
MIC (Staphylococcus aureus [3]): 64 µg/mL (≈ 211 µM)
MIC (Enterococcus faecalis): 32 µg/mL (≈ 105 µM)
MIC (Moraxella catarrhalis): > 64 µg/mL
MIC [1]: 8 µg/mL (≈ 26.4 µM)
MIC (Staphylococcus aureus [2]): 32 µg/mL (≈ 105 µM)

CC(=O)NC[C@H]1CN(c2ccc(N3CCOCC3)c(F)c2)C(=O)O1 [LINEZOLID]
MIC (Haemophilus influenzae): 16 µg/mL (≈ 47.4 µM)
ED50 (Mus musculus): 5.6 mg/kg/day
MIC (Moraxella catarrhalis): 8 µg/mL (≈ 23.7 µM)
MIC [1]: 1 µg/mL (≈ 2.96 µM)

CC(=O)NC[C@H]1CN(c2ccc3c(c2)CCCN(C(=O)CO)C3)C(=O)O1
MIC (Streptococcus pneumoniae): 1 µg/mL (≈ 2.77 µM)
MIC (Haemophilus influenzae): 64 µg/mL (≈ 177 µM)
MIC (Staphylococcus aureus [3]): 4 µg/mL (≈ 11.1 µM)
MIC (Enterococcus faecalis): 4 µg/mL (≈ 11.1 µM)
MIC (Moraxella catarrhalis): 16 µg/mL (≈ 44.3 µM)
MIC [1]: 1 µg/mL (≈ 2.77 µM)
MIC (Staphylococcus aureus [2]): 4 µg/mL (≈ 11.1 µM)

CC(=O)NC[C@H]1CN(c2ccc3c(c2)CCCN(C(=O)NCCc2ccccc2)C3)C(=O)O1
MIC (Streptococcus pneumoniae): 8 µg/mL (≈ 17.8 µM)
MIC (Haemophilus influenzae): > 64 µg/mL
MIC (Enterococcus faecalis): 32 µg/mL (≈ 71 µM)
MIC [1]: 32 µg/mL (≈ 71 µM)
MIC (Staphylococcus aureus [2]): 64 µg/mL (≈ 142 µM)

CC(=O)NC[C@H]1CN(c2ccc3c(c2)CCCCN3)C(=O)O1
MIC (Streptococcus pneumoniae): 16 µg/mL (≈ 52.7 µM)
MIC (Haemophilus influenzae): > 64 µg/mL
MIC (Staphylococcus aureus [3]): 32 µg/mL (≈ 105 µM)
MIC (Enterococcus faecalis): 64 µg/mL (≈ 211 µM)
MIC (Moraxella catarrhalis): > 64 µg/mL
MIC [1]: 16 µg/mL (≈ 52.7 µM)
MIC (Staphylococcus aureus [2]): 64 µg/mL (≈ 211 µM)

CC(=O)NC[C@H]1CN(c2ccc3c(c2)CCN(C(=O)Cc2ccccc2)CC3)C(=O)O1
MIC (Streptococcus pneumoniae): 1 µg/mL (≈ 2.37 µM)
MIC (Haemophilus influenzae): > 64 µg/mL
MIC (Enterococcus faecalis): 2 µg/mL (≈ 4.74 µM)
MIC [1]: 1 µg/mL (≈ 2.37 µM)
MIC (Staphylococcus aureus [2]): 4 µg/mL (≈ 9.49 µM)

CC(=O)NC[C@H]1CN(c2ccc3c(c2)CCCN(C(=O)Cc2ccccc2)C3)C(=O)O1
MIC (Streptococcus pneumoniae): 4 µg/mL (≈ 9.49 µM)
MIC (Haemophilus influenzae): > 64 µg/mL
MIC (Enterococcus faecalis): 16 µg/mL (≈ 38 µM)
MIC [1]: 8 µg/mL (≈ 19 µM)
MIC (Staphylococcus aureus [2]): 32 µg/mL (≈ 75.9 µM)

COC(=O)N1CCCc2cc(N3C[C@H](CNC(C)=O)OC3=O)ccc2C1
MIC (Streptococcus pneumoniae): 2 µg/mL (≈ 5.53 µM)
MIC (Haemophilus influenzae): > 64 µg/mL
MIC (Enterococcus faecalis): 4 µg/mL (≈ 11.1 µM)
MIC [1]: 2 µg/mL (≈ 5.53 µM)
MIC (Staphylococcus aureus [2]): 8 µg/mL (≈ 22.1 µM)

CC(=O)NC[C@H]1CN(c2ccc3c(c2)CCCN(C(=O)OCc2ccccc2)C3)C(=O)O1
MIC (Streptococcus pneumoniae): 8 µg/mL (≈ 18.3 µM)
MIC (Haemophilus influenzae): > 64 µg/mL
MIC (Enterococcus faecalis): 32 µg/mL (≈ 73.1 µM)
MIC [1]: 16 µg/mL (≈ 36.6 µM)
MIC (Staphylococcus aureus [2]): 16 µg/mL (≈ 36.6 µM)

CC(=O)NC[C@H]1CN(c2ccc3c(c2)CCCN(C(=O)NC(C)C)C3)C(=O)O1
MIC (Streptococcus pneumoniae): 8 µg/mL (≈ 20.6 µM)
MIC (Haemophilus influenzae): > 64 µg/mL
MIC (Enterococcus faecalis): 32 µg/mL (≈ 82.4 µM)
MIC [1]: 32 µg/mL (≈ 82.4 µM)
MIC (Staphylococcus aureus [2]): 64 µg/mL (≈ 165 µM)

CC(=O)NC[C@H]1CN(c2ccc3c(c2)CCN(C(=O)c2ccccc2)CC3)C(=O)O1
MIC (Streptococcus pneumoniae): 1 µg/mL (≈ 2.45 µM)
MIC (Haemophilus influenzae): > 64 µg/mL
MIC (Enterococcus faecalis): 2 µg/mL (≈ 4.91 µM)
MIC [1]: 1 µg/mL (≈ 2.45 µM)
MIC (Staphylococcus aureus [2]): 8 µg/mL (≈ 19.6 µM)

CC(=O)NC[C@H]1CN(c2ccc3c(c2)CCCN(C(C)=O)C3)C(=O)O1
MIC (Streptococcus pneumoniae): 2 µg/mL (≈ 5.79 µM)
MIC (Haemophilus influenzae): > 64 µg/mL
MIC (Enterococcus faecalis): 8 µg/mL (≈ 23.2 µM)
MIC [1]: 4 µg/mL (≈ 11.6 µM)
MIC (Staphylococcus aureus [2]): 8 µg/mL (≈ 23.2 µM)

CC(=O)NC[C@H]1CN(c2ccc3c(c2)CCN(C=O)CC3)C(=O)O1
MIC (Streptococcus pneumoniae): < 0.05 µg/mL
MIC (Haemophilus influenzae): > 64 µg/mL
MIC (Staphylococcus aureus [3]): 2 µg/mL (≈ 6.04 µM)
MIC (Enterococcus faecalis): 4 µg/mL (≈ 12.1 µM)
MIC (Moraxella catarrhalis): 8 µg/mL (≈ 24.1 µM)
MIC [1]: < 0.05 µg/mL
MIC (Staphylococcus aureus [2]): 4 µg/mL (≈ 12.1 µM)

CC(=O)NC[C@H]1CN(c2ccc3c(c2)CCCNC3)C(=O)O1
MIC (Streptococcus pneumoniae): 8 µg/mL (≈ 26.4 µM)
MIC (Haemophilus influenzae): > 64 µg/mL
MIC (Enterococcus faecalis): > 64 µg/mL
MIC (Moraxella catarrhalis): > 64 µg/mL
MIC [1]: 32 µg/mL (≈ 105 µM)
MIC (Staphylococcus aureus [2]): > 64 µg/mL

CC(=O)NC[C@H]1CN(c2ccc3c(c2)CCCCN3C=O)C(=O)O1
MIC (Streptococcus pneumoniae): < 0.05 µg/mL
MIC (Haemophilus influenzae): 16 µg/mL (≈ 48.3 µM)
MIC (Staphylococcus aureus [3]): 2 µg/mL (≈ 6.04 µM)
MIC (Enterococcus faecalis): 2 µg/mL (≈ 6.04 µM)
MIC (Moraxella catarrhalis): 4 µg/mL (≈ 12.1 µM)
MIC [1]: < 0.05 µg/mL
MIC (Staphylococcus aureus [2]): 2 µg/mL (≈ 6.04 µM)

CC(=O)NC[C@H]1CN(c2ccc3c(c2)CCN(C(=O)CO)CC3)C(=O)O1
MIC (Streptococcus pneumoniae): < 0.05 µg/mL
MIC (Haemophilus influenzae): 32 µg/mL (≈ 88.5 µM)
MIC (Staphylococcus aureus [3]): 2 µg/mL (≈ 5.53 µM)
ED50 (Mus musculus): 8.5 mg/kg/day
MIC (Enterococcus faecalis): 4 µg/mL (≈ 11.1 µM)
MIC (Moraxella catarrhalis): 8 µg/mL (≈ 22.1 µM)
MIC [1]: 1 µg/mL (≈ 2.77 µM)
MIC (Staphylococcus aureus [2]): 2 µg/mL (≈ 5.53 µM)

CC(=O)NC[C@H]1CN(c2ccc3c(c2)CCCN(C(=O)Nc2ccccc2)C3)C(=O)O1
MIC (Streptococcus pneumoniae): 1 µg/mL (≈ 2.37 µM)
MIC (Haemophilus influenzae): 64 µg/mL (≈ 151 µM)
MIC (Enterococcus faecalis): 4 µg/mL (≈ 9.47 µM)
MIC [1]: 4 µg/mL (≈ 9.47 µM)
MIC (Staphylococcus aureus [2]): 16 µg/mL (≈ 37.9 µM)

COC(=O)N1CCc2ccc(N3C[C@H](CNC(C)=O)OC3=O)cc2CC1
MIC (Streptococcus pneumoniae): 1 µg/mL (≈ 2.77 µM)
MIC (Haemophilus influenzae): > 64 µg/mL
MIC (Enterococcus faecalis): 2 µg/mL (≈ 5.53 µM)
MIC [1]: 1 µg/mL (≈ 2.77 µM)
MIC (Staphylococcus aureus [2]): 4 µg/mL (≈ 11.1 µM)

CC(=O)NC[C@H]1CN(c2ccc3c(c2)N(C=O)CCCC3)C(=O)O1
MIC (Streptococcus pneumoniae): > 64 µg/mL
MIC (Haemophilus influenzae): > 64 µg/mL
MIC (Enterococcus faecalis): > 64 µg/mL
MIC (Moraxella catarrhalis): > 64 µg/mL
MIC [1]: > 64 µg/mL
MIC (Staphylococcus aureus [2]): > 64 µg/mL

CC(=O)NC[C@H]1CN(c2ccc3c(c2)CCN(S(C)(=O)=O)CC3)C(=O)O1
MIC (Streptococcus pneumoniae): 8 µg/mL (≈ 21 µM)
MIC (Haemophilus influenzae): 32 µg/mL (≈ 83.9 µM)
MIC (Enterococcus faecalis): 32 µg/mL (≈ 83.9 µM)
MIC (Moraxella catarrhalis): > 64 µg/mL
MIC [1]: 16 µg/mL (≈ 41.9 µM)
MIC (Staphylococcus aureus [2]): 16 µg/mL (≈ 41.9 µM)

CC(=O)NC[C@H]1CN(c2ccc3c(c2)CCN(C(=O)OCc2ccccc2)CC3)C(=O)O1
MIC (Streptococcus pneumoniae): < 0.05 µg/mL
MIC (Haemophilus influenzae): > 64 µg/mL
MIC (Staphylococcus aureus [3]): 2 µg/mL (≈ 4.57 µM)
MIC (Enterococcus faecalis): 4 µg/mL (≈ 9.14 µM)
MIC (Moraxella catarrhalis): 16 µg/mL (≈ 36.6 µM)
MIC [1]: 1 µg/mL (≈ 2.29 µM)
MIC (Staphylococcus aureus [2]): 4 µg/mL (≈ 9.14 µM)

CC(=O)NC[C@H]1CN(c2ccc3c(c2)CCN(C(C)=O)CC3)C(=O)O1
MIC (Streptococcus pneumoniae): 1 µg/mL (≈ 2.9 µM)
MIC (Haemophilus influenzae): 64 µg/mL (≈ 185 µM)
MIC (Enterococcus faecalis): 2 µg/mL (≈ 5.79 µM)
MIC [1]: 1 µg/mL (≈ 2.9 µM)
MIC (Staphylococcus aureus [2]): 4 µg/mL (≈ 11.6 µM)
